Reference: patent US20250163032A1, “NOVEL MOLECULES AS INHIBITORS OF DNA DAMAGE REPAIR PATHWAY” (VRise Therapeutics, Inc., priority 2023, published 2025)
pIC50: −log10 of the molar value.

Legend:
NCI-H1792 = assay: Cell viability assay (MTT assay), NCI-H1792; format: cell-based; conditions: Homo sapiens, tested at 10 uM, 168 hours (Test-3)
Experimental: Test-3: Cell Viability Assay (MTT Assay):
Cell viability assay was carried out using 10% FBS supplemented media. Cells were seeded at desired density in 96 well plate and incubated in a humidified CO2 incubator. After 24 hours of plating, test compounds at desired concentration range were added to the plates and incubated in the CO2 incubator for 168 hours. Post 168 hrs treatment, 12.5 μL of MTT was added to all wells including DMSO control. MTT treated plates were incubated further for 3 hours and MTT crystals were dissolved using 125 μL of DMSO. Absorbance was read on a BIO-RAD iMark Microplate plate reader at a wavelength of 570 nm. Data was analysed and percent inhibition (IC50) due to the test compound compared to the control was calculated using GraphPad Prism.

MD-MBA-436 = assay: Cell viability assay (CTG assay); format: cell-based, human; conditions: Homo sapiens, 7th day
Experimental: Test 5: Cell Viability Assay (CTG Assay):
Growth inhibition assays was carried out using […] supplemented media. Cells were seeded at a desired concentration of 1000-6,000 cells/well in a well plate with desired number of wells. Test compounds at a desired concentration range were added after 24 hours. Growth was assessed using the Cell Titer-Glo (CTG, Cell Signaling) for measuring reduction at 7th day after the addition of test compound chemiluminescence values were read by a plate reader. Data was be analysed and percent inhibition and/or IC50 for each test compound is calculated accordingly.

[1] = Metabolic stability, human liver microsomes; format: in vitro ADME; conditions: pH 7.4, 1 μM test item, 1 mM NADPH, 60 minutes
Experimental: (§1) Test-8: Metabolic Stability
(§2) Metabolic stability studies were conducted using mouse, rat, and human liver microsomes. The protocol for the studies with mouse and human liver microsomes (Gibco-Thermo) is provided below.
(§3) In brief, 0.25 mg protein was preincubated in phosphate buffer (pH˜7.4) for 5 min at 37° C. and then added with 1 μM test item followed by addition of 1 mM NADPH (cof actor) and incubated further over a period 60 minutes in duplicate. The reaction mixture was terminated with acetonitrile containing an internal standard and centrifuged further to analyse the test item remaining in the supernatant by LC-MS/MS at different intervals. The percent parent compound remaining was calculated in comparison with similar samples terminated at 0 minutes.

USP1/UAF1 = USP1/UAF1 (Homo sapiens, UniProt O94782); assay: USP1/UAF 1 assay (ubiquitin-rhodamine110 fluorometric deubiquitinase assay); format: biochemical; conditions: for pIC50: 1 nM USP1/UAF1, 150 nM Ub-Rho, read-out: Biochemical assay IC50
Chain of USP1/UAF1 (O94782 whole entry): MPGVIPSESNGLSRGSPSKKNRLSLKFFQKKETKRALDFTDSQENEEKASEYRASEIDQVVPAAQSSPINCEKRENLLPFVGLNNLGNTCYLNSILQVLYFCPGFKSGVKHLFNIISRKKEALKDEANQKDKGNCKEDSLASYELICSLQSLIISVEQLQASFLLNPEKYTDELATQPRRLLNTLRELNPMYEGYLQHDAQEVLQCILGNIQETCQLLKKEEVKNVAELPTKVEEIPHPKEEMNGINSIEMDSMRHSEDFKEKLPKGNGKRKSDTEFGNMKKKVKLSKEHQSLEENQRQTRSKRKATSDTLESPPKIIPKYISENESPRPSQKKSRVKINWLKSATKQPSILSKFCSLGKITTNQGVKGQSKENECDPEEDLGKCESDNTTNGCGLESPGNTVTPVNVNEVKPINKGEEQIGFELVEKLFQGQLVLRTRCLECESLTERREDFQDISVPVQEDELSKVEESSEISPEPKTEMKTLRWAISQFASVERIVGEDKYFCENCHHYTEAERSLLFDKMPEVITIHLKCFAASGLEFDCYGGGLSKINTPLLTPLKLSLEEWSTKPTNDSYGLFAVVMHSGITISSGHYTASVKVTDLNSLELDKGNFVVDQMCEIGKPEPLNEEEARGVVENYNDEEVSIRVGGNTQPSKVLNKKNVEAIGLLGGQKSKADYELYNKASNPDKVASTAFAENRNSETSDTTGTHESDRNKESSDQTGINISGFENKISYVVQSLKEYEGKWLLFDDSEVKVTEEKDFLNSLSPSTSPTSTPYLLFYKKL
Chain of USP1/UAF1 (Q8TAF3 whole entry partner): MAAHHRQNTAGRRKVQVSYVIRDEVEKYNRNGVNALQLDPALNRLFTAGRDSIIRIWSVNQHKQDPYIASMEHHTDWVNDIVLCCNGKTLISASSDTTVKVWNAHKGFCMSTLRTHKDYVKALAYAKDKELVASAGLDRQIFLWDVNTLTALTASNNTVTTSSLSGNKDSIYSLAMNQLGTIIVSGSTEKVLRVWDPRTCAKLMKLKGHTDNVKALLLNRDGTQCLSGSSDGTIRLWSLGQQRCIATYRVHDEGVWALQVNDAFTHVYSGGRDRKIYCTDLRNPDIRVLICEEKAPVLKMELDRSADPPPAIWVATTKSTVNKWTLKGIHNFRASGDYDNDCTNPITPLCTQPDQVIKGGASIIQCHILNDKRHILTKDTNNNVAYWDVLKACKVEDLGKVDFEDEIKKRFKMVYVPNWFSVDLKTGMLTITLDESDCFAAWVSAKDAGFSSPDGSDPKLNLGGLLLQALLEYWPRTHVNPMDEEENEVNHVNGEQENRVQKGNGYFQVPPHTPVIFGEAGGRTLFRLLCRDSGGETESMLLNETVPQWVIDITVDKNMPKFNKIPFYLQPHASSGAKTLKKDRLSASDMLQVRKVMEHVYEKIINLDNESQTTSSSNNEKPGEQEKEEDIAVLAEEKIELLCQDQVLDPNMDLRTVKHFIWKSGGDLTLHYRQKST

[2] = Metabolic stability, mouse liver microsomes; format: in vitro ADME; conditions: pH 7.4, 1 μM test item, 1 mM NADPH, 60 minutes
Experimental: as §1, §2, §3

SMILES: COc1ncccc1-c1nc(NCc2ccc(-c3nc(C(F)(F)F)cn3C)cc2)c2ncn(C3CCCCO3)c2n1 (stereo not shown) [Example 31, 2-(2-methoxypyridin-3-yl)-N-(4-(1-methyl-4-(trifluoromethyl)-1H-imidazol-2-yl)benzyl)-9-(tetrahydro-2H-pyran-2-yl)-9H-purin-6-amine]
- inhibition at 10 µM (NCI-H1792): 25 to 50%

SMILES: COc1ncnc(C2CC2)c1-c1nc(NCc2ccc(-c3nc(C(F)(F)F)cn3C)cc2)c2cccn2n1 [Example 6, 2-(4-cyclopropyl-6-methoxypyrimidin-5-yl)-N-(4-(1-methyl-4-(trifluoromethyl)-1H-imidazol-2-yl)benzyl)pyrrolo[2,1-f][1,2,4]triazin-4-amine]
- pIC50 (MD-MBA-436): > 7.30
- half-life at 1 μM [1]: ≥ 300 min
- pIC50 (USP1/UAF1): > 7.30
- half-life at 1 μM [2]: ≥ 30 min
- inhibition at 10 µM (NCI-H1792): 50 to 75%

SMILES: COc1ncnc(C2CC2)c1-c1nc(NCc2ccc(-c3ccc(F)cn3)cc2)c2[nH]cnc2n1 [Example 77, 2-(4-cyclopropyl-6-methoxypyrimidin-5-yl)-N-(4-(5-fluoropyridin-2-yl)benzyl)-7H-purin-6-amine]
- inhibition at 10 µM (NCI-H1792): 50 to 75%

SMILES: COc1ncnc(C2CC2)c1-c1nc(NCc2ccc(-c3cccnc3)cc2)c2[nH]cnc2n1 [Example 76, 2-(4-cyclopropyl-6-methoxypyrimidin-5-yl)-N-(4-(pyridin-3-yl)benzyl)-7H-purin-6-amine]
- half-life at 1 μM [2]: 10.1 min
- inhibition at 10 µM (NCI-H1792): 25 to 50%

SMILES: COc1ccncc1-c1nc(NCc2ccc(-c3nc(C(F)(F)F)cn3C)cc2)c2ncn(C3CCCCO3)c2n1 (stereo not shown) [Example 33, 2-(4-methoxypyridin-3-yl)-N-(4-(1-methyl-4-(trifluoromethyl)-1H-imidazol-2-yl)benzyl)-9-(tetrahydro-2H-pyran-2-yl)-9H-purin-6-amine]
- inhibition at 10 µM (NCI-H1792): 50 to 75%

SMILES: COc1ncccc1-c1nc(NCc2ccc(-c3nc(C(F)(F)F)cn3C)cc2)c2[nH]cnc2n1 [Example 32, 2-(2-methoxypyridin-3-yl)-N-(4-(1-methyl-4-(trifluoromethyl)-1H-imidazol-2-yl)benzyl)-7H-purin-6-amine]
- inhibition at 10 µM (USP1/UAF1; read-out: Biochemical assay % inhibition @10 μM): > 75%
- inhibition at 10 µM (NCI-H1792): 50 to 75%

SMILES: COc1ncnc(C2CC2)c1-c1nc(NCc2ccc(-c3nc(C(F)(F)F)cn3C)cc2)c2[nH]cnc2n1 [Example 16, 2-(4-cyclopropyl-6-methoxypyrimidin-5-yl)-N-(4-(1-methyl-4-(trifluoromethyl)-1H-imidazol-2-yl)benzyl)-7H-purin-6-amine]
- inhibition at 10 µM (MD-MBA-436; @10 μM): 50 to 75%
- half-life at 1 μM [1]: ≥ 700 min
- pIC50 (USP1/UAF1): 7.00 to 7.30
- half-life at 1 μM [2]: ≥ 230 min

SMILES: COc1ncnc(C2CC2)c1-c1nc2c(c(NCc3ccc(-c4nc(C(F)(F)F)cn4C)cc3)n1)CCC2 [Example 1, 2-(4-cyclopropyl-6-methoxypyrimidin-5-yl)-N-(4-(1-methyl-4-(trifluoromethyl)-1H-imidazol-2-yl)benzyl)-6,7-dihydro-5H-cyclopenta[d]pyrimidin-4-amine]
- pIC50 (MD-MBA-436): > 7.30
- half-life at 1 μM [1]: 108 min
- pIC50 (USP1/UAF1): 7.00 to 7.30
- half-life at 1 μM [2]: 89.6 min
- inhibition at 10 µM (NCI-H1792): 25 to 50%

SMILES: CC(C)c1ccccc1-c1nc2c(c(NCc3ccc(-c4nc(C(F)(F)F)cn4C)cc3)n1)CCC2 [Example 3, 2-(2-isopropylphenyl)-N-(4-(1-methyl-4-(trifluoromethyl)-1H-imidazol-2-yl)benzyl)-6,7-dihydro-5H-cyclopenta[d]pyrimidin-4-amine]
- pIC50 (MD-MBA-436): > 7.30
- half-life at 1 μM [1]: 14 min
- pIC50 (USP1/UAF1): > 7.30
- half-life at 1 μM [2]: 14.4 min
